Patent US20250122183A1 (Pfizer Inc., priority 2023, published 2025)

Tests used:
Format in all cases: biochemical
[1] = target: KAT7+JADE1+EAF6+ING5 4 protein complex (Homo sapiens (Human), UniProt O95251); assay: KAT7 JADE1 assay (SAMDI-MS acetylation of H3 1-21 peptide); details: Morrison equation fit; replicate number in parentheses; read-out: KAT7 JADE1 Ki (nM) (replicate number)
[2] = target: KAT7+BRPF2+EAF6+ING5 4 protein complex (Homo sapiens (Human), UniProt O95251); assay: KAT7 BRPF2 assay (SAMDI-MS acetylation of H3 1-21 peptide); details: Morrison equation fit; replicate number in parentheses; read-out: KAT7 BRPF2 Ki (nM) (replicate number)
[3] = target: KAT5 Full length enzyme (Homo sapiens (Human), UniProt Q92993); assay: KAT5 assay (SAMDI-MS acetylation of H4 1-21 peptide); details: Morrison equation fit; replicate number in parentheses; read-out: KAT5 Ki (nM) (replicate number)
Sequence of KAT5 Full length enzyme (Q92993 whole entry): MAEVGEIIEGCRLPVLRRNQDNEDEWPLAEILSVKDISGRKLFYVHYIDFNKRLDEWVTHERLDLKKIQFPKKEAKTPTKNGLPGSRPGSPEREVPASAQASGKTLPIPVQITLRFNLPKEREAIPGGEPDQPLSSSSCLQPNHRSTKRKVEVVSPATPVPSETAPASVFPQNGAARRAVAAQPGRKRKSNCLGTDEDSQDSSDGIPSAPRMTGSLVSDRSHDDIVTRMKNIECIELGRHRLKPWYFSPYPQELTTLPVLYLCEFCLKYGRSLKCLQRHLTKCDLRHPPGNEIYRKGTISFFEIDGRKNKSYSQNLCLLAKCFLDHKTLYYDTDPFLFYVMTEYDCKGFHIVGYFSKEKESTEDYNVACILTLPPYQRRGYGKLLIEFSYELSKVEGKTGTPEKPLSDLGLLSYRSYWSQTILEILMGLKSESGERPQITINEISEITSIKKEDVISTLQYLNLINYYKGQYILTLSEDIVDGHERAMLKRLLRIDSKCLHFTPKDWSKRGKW

[4] = target: KAT6A Full length enzyme (Homo sapiens (Human), UniProt Q92794); assay: KAT6A assay (SAMDI-MS acetylation of H3 1-21 peptide); details: Morrison equation fit; replicate number in parentheses; read-out: KAT6A Ki (nM) (replicate number)
Sequence of KAT6A Full length enzyme (Q92794 other isoform, or with tags, fused parts or gaps): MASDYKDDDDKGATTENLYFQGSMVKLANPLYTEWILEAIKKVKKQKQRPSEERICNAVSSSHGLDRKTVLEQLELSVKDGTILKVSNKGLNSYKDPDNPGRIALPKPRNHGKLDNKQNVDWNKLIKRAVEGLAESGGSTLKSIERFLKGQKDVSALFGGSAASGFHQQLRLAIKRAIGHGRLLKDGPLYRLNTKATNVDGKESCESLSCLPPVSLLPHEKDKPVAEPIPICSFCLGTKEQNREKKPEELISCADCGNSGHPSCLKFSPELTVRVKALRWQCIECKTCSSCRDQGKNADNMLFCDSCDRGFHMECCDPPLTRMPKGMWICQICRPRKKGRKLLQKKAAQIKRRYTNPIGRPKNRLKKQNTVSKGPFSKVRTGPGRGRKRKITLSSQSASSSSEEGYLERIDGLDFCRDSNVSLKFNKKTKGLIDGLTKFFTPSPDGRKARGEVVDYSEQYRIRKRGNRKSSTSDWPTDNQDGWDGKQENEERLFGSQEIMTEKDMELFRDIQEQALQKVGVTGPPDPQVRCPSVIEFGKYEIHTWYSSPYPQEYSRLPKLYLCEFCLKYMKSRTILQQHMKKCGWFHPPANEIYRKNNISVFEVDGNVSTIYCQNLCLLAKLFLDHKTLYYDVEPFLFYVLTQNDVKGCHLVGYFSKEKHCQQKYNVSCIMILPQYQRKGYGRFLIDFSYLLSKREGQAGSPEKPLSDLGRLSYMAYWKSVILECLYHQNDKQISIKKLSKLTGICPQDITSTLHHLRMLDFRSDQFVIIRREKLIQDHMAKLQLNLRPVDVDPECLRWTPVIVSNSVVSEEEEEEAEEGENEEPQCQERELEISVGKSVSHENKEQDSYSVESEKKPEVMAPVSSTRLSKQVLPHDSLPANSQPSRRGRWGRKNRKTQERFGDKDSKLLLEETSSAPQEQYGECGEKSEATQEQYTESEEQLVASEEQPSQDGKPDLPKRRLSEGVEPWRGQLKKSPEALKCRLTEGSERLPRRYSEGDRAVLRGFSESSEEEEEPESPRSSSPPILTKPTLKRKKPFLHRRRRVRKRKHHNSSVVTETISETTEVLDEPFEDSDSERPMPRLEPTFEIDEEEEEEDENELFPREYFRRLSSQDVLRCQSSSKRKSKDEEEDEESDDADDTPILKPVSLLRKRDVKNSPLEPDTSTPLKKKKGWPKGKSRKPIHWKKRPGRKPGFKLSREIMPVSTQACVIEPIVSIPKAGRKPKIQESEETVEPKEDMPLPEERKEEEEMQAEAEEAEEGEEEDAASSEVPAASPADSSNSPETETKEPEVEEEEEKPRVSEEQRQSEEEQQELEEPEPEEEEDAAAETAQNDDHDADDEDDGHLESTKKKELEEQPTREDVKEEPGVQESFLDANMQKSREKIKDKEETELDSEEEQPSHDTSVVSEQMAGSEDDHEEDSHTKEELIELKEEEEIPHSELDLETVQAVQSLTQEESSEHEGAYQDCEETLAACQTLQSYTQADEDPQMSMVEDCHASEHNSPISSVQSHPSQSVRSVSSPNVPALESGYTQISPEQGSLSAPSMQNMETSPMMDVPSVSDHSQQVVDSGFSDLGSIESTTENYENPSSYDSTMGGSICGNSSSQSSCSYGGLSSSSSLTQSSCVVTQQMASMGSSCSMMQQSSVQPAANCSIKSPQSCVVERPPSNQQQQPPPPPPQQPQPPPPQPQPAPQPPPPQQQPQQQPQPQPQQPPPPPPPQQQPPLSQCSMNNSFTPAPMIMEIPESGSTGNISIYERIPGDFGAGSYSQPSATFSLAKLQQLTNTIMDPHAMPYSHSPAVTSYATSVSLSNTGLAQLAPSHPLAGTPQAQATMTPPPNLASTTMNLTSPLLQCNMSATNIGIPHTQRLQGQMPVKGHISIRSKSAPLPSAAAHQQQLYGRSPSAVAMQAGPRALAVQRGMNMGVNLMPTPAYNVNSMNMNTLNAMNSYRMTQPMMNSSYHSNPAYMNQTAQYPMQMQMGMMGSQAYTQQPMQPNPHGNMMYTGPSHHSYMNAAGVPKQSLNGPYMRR

[5] = target: KAT8 Full length enzyme (Homo sapiens (Human), UniProt Q9H7Z6); assay: KAT8 assay (SAMDI-MS acetylation of H3 1-21 peptide); details: Morrison equation fit; replicate number in parentheses; read-out: KAT8 Ki (nM) (replicate number)
Sequence of KAT8 Full length enzyme (Q9H7Z6 whole entry): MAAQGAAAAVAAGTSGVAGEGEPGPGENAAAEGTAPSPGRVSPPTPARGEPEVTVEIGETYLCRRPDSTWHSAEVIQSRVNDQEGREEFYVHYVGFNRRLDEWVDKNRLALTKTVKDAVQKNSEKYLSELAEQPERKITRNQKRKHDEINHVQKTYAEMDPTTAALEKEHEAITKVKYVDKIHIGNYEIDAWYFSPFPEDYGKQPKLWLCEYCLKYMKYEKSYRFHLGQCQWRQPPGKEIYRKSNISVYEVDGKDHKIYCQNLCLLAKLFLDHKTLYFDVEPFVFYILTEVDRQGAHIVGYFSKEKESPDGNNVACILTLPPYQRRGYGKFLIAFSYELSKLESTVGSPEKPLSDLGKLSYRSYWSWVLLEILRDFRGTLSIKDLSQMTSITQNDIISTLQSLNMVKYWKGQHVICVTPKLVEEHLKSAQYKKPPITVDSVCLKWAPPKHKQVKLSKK

[6] = target: KAT7+BRPF1+EAF6+ING5 4 protein complex (Homo sapiens (Human), UniProt O95251); assay: KAT7 BRPF1 assay (SAMDI-MS acetylation of H3 1-21 peptide); details: Morrison equation fit; replicate number in parentheses

| Compound | Ki [1] [nM] | Ki [2] [nM] | Ki [3] [nM] | Ki [4] [nM] | Ki [5] [nM] | Ki [6] [nM] |
| --- | --- | --- | --- | --- | --- | --- |
| CCOc1cc(C)c(F)cc1S(=O)(=O)Nc1noc2cc(Nc3cc(C(C)C)[nH]n3)c(OC)cc12 [Example 79, 2-ethoxy-5-fluoro-N-(5-methoxy-6-{[5-(propan-2-yl)-1H-pyrazol-3-yl]amino}-1,2-benzoxazol-3-yl)-4-methylbenzene-1-sulfonamide] | 119 | 26.5 | 692 | 5.1 | 6570 | 25.2 |
| COc1cc2c(NS(=O)(=O)c3ccccc3OC)noc2cc1Nc1cc(C)n[nH]1 [Example 06, 2-Methoxy-N-{5-methoxy-6-[(3-methyl-1H-pyrazol-5-yl)amino]-1,2-benzoxazol-3-yl}benzene-1-sulfonamide] | 148 | 50.5 | 300 | 0.8 | > 13000 | 47.1 |
| COc1cc2c(NS(=O)(=O)c3ccc(Cl)cc3OC)noc2cc1Nc1cc[nH]n1 [Example 27, 4-chloro-2-methoxy-N-{5-methoxy-6-[(1H-pyrazol-3-yl)amino]-1,2-benzoxazol-3-yl}benzene-1-sulfonamide] | 220 | 124 | 390 | 1.3 | 893 | 74.7 |
| CCOc1ccccc1S(=O)(=O)Nc1noc2cc(Nc3cc(C(C)C)[nH]n3)c(OC)cc12 [Example 63, 2-ethoxy-N-(5-methoxy-6-{[5-(propan-2-yl)-1H-pyrazol-3-yl]amino}-1,2-benzoxazol-3-yl)benzene-1-sulfonamide] | 203 | 76.2 | 436 | 10.2 | 13000 | 54.8 |
| COc1ccccc1S(=O)(=O)Nc1noc2cc(Nc3cc[nH]n3)cc(OC)c12 [Example 09, 2-methoxy-N-{4-methoxy-6-[(1H-pyrazol-3-yl)amino]-1,2-benzoxazol-3-yl}benzene-1-sulfonamide] | 202 | 90.7 | 642 | 0.8 | 1190 | 51.8 |
| CCOc1cc(C)ccc1S(=O)(=O)Nc1noc2cc(Nc3cc(C(C)C)[nH]n3)c(OC)cc12 [Example 78, 2-ethoxy-N-(5-methoxy-6-{[5-(propan-2-yl)-1H-pyrazol-3-yl]amino}-1,2-benzoxazol-3-yl)-4-methylbenzene-1-sulfonamide] | 109 | 54.4 | 354 | 2.5 | 8730 | 40.2 |
| CCn1ccc(Nc2cc3onc(NS(=O)(=O)c4c(OC)cccc4OC)c3cc2OC)n1 [Example 39, N-{6-[(1-ethyl-1H-pyrazol-3-yl)amino]-5-methoxy-1,2-benzoxazol-3-yl}-2,6-dimethoxybenzene-1-sulfonamide] | 175 | 98.2 | 1750 | 6.1 | > 32600 | 75.3 |
| COc1cc2c(NS(=O)(=O)c3c(OC)cccc3OCC(F)F)noc2cc1Nc1cc[nH]n1 [Example 31, 2-(2,2-difluoroethoxy)-6-methoxy-N-{5-methoxy-6-[(1H-pyrazol-3-yl)amino]-1,2-benzoxazol-3-yl}benzene-1-sulfonamide] | 325 | 104 | 977 | 0.8 | 781 | 79.9 |
| COc1cc2c(NS(=O)(=O)c3c(OC)cccc3OC)noc2cc1Nc1cc(C(C)C)n[nH]1 [Example 50, 2,6-dimethoxy-N-(5-methoxy-6-{[3-(propan-2-yl)-1H-pyrazol-5-yl]amino}-1,2-benzoxazol-3-yl)benzene-1-sulfonamide] | 113 | 22.8 | 634 | 4.5 | 709 | 28.4 |
| COc1cccc(OC)c1S(=O)(=O)Nc1noc2cc(Nc3cc[nH]n3)cc(OC)c12 [Example 01, 2,6-Dimethoxy-N-{4-methoxy-6-[(1H-pyrazol-3-yl)amino]-1,2-benzoxazol-3-yl}benzene-1-sulfonamide] | 131 | 37 | 441 | 0.4 | 455 | 37.7 |
| COc1cc2c(NS(=O)(=O)c3c(OC)cccc3OC)noc2cc1Nc1cc(C2CC2)n[nH]1 [Example 47, N-{6-[(3-cyclopropyl-1H-pyrazol-5-yl)amino]-5-methoxy-1,2-benzoxazol-3-yl}-2,6-dimethoxybenzene-1-sulfonamide] | 5 | 2.2 | 131 | 0.8 | 1220 | 1.9 |
| CCn1cnc(Nc2cc3onc(NS(=O)(=O)c4c(OC)cccc4OC)c3cc2OC)n1 [Example 41, N-{6-[(1-ethyl-1H-1,2,4-triazol-3-yl)amino]-5-methoxy-1,2-benzoxazol-3-yl}-2,6-dimethoxybenzene-1-sulfonamide] | 359 | 94.2 | 3390 | 6 | > 16300 | 25.6 |
| COc1cc2c(NS(=O)(=O)c3c(OC)cccc3OC)noc2cc1Nc1cc[nH]n1 [Example 03, 2,6-Dimethoxy-N-{5-methoxy-6-[(1H-pyrazol-3-yl)amino]-1,2-benzoxazol-3-yl}benzene-1-sulfonamide] | 105 | 43.6 | 138 | 0.5 | 861 | 40.6 |
| COc1cc2c(NS(=O)(=O)c3cc4c(cc3OC)CCCC4)noc2cc1Nc1cc(C)n[nH]1 [Example 82, 3-methoxy-N-{5-methoxy-6-[(3-methyl-1H-pyrazol-5-yl)amino]-1,2-benzoxazol-3-yl}-5,6,7,8-tetrahydronaphthalene-2-sulfonamide] | 31.8 | 18.3 | 33.8 | 0.1 | 467 | 7.5 |
| CCOc1ccccc1S(=O)(=O)Nc1noc2cc(Nc3cc[nH]n3)c(OC)cc12 [Example 28, 2-ethoxy-N-{5-methoxy-6-[(1H-pyrazol-3-yl)amino]-1,2-benzoxazol-3-yl}benzene-1-sulfonamide] | 290 | 141 | 630 | 1.2 | 3110 | 97.1 |
| COc1cc2c(NS(=O)(=O)c3ccccc3OC)noc2cc1Nc1cc(C(C)C)[nH]n1 [Example 65, 2-methoxy-N-(5-methoxy-6-{[5-(propan-2-yl)-1H-pyrazol-3-yl]amino}-1,2-benzoxazol-3-yl)benzene-1-sulfonamide] | 206 | 85.4 | 1280 | 8.6 | > 13000 | 57.4 |
| COc1cc2c(NS(=O)(=O)c3c(OC)cccc3OC)noc2cc1Nc1n[nH]c(C)n1 [Example 36, 2,6-dimethoxy-N-{5-methoxy-6-[(5-methyl-1H-1,2,4-triazol-3-yl)amino]-1,2-benzoxazol-3-yl}benzene-1-sulfonamide] | 501 | 106 | 1080 | 1 | 2990 | 93 |
| COC(=O)c1cc(Nc2cc3onc(NS(=O)(=O)c4c(OC)cccc4OC)c3cc2OC)[nH]n1 [Example 55, methyl 5-({3-[(2,6-dimethoxybenzene-1-sulfonyl)amino]-5-methoxy-1,2-benzoxazol-6-yl}amino)-1H-pyrazole-3-carboxylate] | 663 | 147 | – | 2.4 | – | 199 |
| COc1cc2c(NS(=O)(=O)c3ccccc3OC)noc2cc1Nc1cc[nH]n1 [Example 22, 2-methoxy-N-{5-methoxy-6-[(1H-pyrazol-3-yl)amino]-1,2-benzoxazol-3-yl}benzene-1-sulfonamide] | 300 | 186 | 488 | 0.9 | 1700 | 108 |
| CCOc1cc(C)c(F)cc1S(=O)(=O)Nc1noc2cc(Nc3cc[nH]n3)c(OC)cc12 [Example 77, 2-ethoxy-5-fluoro-N-{5-methoxy-6-[(1H-pyrazol-3-yl)amino]-1,2-benzoxazol-3-yl}-4-methylbenzene-1-sulfonamide] | 213 | 162 | 243 | 0.6 | 2760 | 76.1 |
| COc1cc2c(NS(=O)(=O)c3ccc(C)cc3OCC(F)F)noc2cc1Nc1cc[nH]n1 [Example 64, 2-(2,2-difluoroethoxy)-N-{5-methoxy-6-[(1H-pyrazol-3-yl)amino]-1,2-benzoxazol-3-yl}-4-methylbenzene-1-sulfonamide] | 136 | 144 | 48.1 | 0.2 | 550 | 146 |
| COc1cccc(OC)c1S(=O)(=O)Nc1noc2cc(Nc3ncc[nH]3)cc(OC)c12 [Example 15, N-{6-[(1H-imidazol-2-yl)amino]-4-methoxy-1,2-benzoxazol-3-yl}-2,6-dimethoxybenzene-1-sulfonamide] | 256 | 100 | 1330 | 1.2 | 1320 | 67.8 |
| COc1cc2c(NS(=O)(=O)c3c(OC)cccc3OC(C)C)noc2cc1Nc1cc[nH]n1 [Example 32, 2-methoxy-N-{5-methoxy-6-[(1H-pyrazol-3-yl)amino]-1,2-benzoxazol-3-yl}-6-[(propan-2-yl)oxy]benzene-1-sulfonamide] | 361 | 79.5 | 2740 | – | > 16300 | 89.7 |
